US10597388B2, “Pyridazinone herbicides” (FMC CORPORATION, priority 2014, dated 2020)

Experiments:
Format in all cases: in vivo
[1] = tested on: ducksalad (Heteranthera limosa); assay: Test B flooded paddy test; settings: 250 g ai/ha, Flood; visual rating on scale of 0 to 100 where 0 is no effect and 100 is complete control; 13 to 15 d after treatment
Outline: (§1)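 Plants grown to the 2-leaf stage. At treatment, pots were flooded to 3 cm above the soil, compound was applied directly to the paddy water, and that depth was held throughout. After 13 to 15 d in the greenhouse, response was rated visually against controls on a 0 (no effect) to 100 (complete control) scale.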

[2] = tested on: sedge, umbrella (small-flower umbrella sedge, Cyperus difformis); assay: Test B flooded paddy test; settings: 250 g ai/ha, Flood; visual rating on scale of 0 to 100 where 0 is no effect and 100 is complete control; 13 to 15 d after treatment
Outline: as §1

[3] = tested on: barnyardgrass (Echinochloa crus-galli); assay: Test B flooded paddy test; settings: 250 g ai/ha, Flood; visual rating on scale of 0 to 100 where 0 is no effect and 100 is complete control; 13 to 15 d after treatment
Outline: as §1

rice (Oryza sativa) = assay: Test B flooded paddy test; settings: 250 g ai/ha, Flood; visual rating on scale of 0 to 100 where 0 is no effect and 100 is complete control; 13 to 15 d after treatment
Outline: as §1

soybean (Glycine max) = assay: Test C greenhouse herbicide test, pre- and postemergence
Outline: (§2)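 Pre- and postemergence greenhouse screen; values are visual control ratings, 0 meaning no effect and 100 complete kill, assigned relative to untreated plants after 13 to 15 d.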

[4] = tested on: wheat (winter wheat, Triticum aestivum); assay: as above
Outline: as §2

[5] = tested on: chickweed (common chickweed, Stellaria media); assay: Test C greenhouse herbicide test, postemergence
Outline: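 Postemergence foliar treatment, 1- to 4-leaf stage (2–18 cm), peat/vermiculite medium; greenhouse 13–15 d; visual rating vs controls, 0 = no effect, 100 = complete control; dash = no result.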

[6] = Postemergence, 31 g ai/ha, 0 to 100 scale (0 no effect, 100 complete control)
[7] = Postemergence, 125 g ai/ha, scale 0 to 100, 0 is no effect, 100 is complete control
[8] = Postemergence, 250 g ai/ha, scale 0 to 100, 0 no effect, 100 complete control, 13 to 15 d
[9] = Preemergence, 62 g ai/ha, scale 0 to 100, 0 is no effect, 100 is complete control
[10] = Preemergence, 125 g ai/ha, scale 0 to 100, 0 is no effect, 100 is complete control
[11] = Preemergence, 250 g ai/ha, scale 0 to 100 (0 no effect, 100 complete control)
[12] = postemergence, 62 g ai/ha, scale 0 to 100, 0 no effect, 100 complete control
[13] = Preemergence, 31 g ai/ha, scale 0 to 100, 0 is no effect, 100 is complete control
[14] = Postemergence, 31 g ai/ha, scale 0 to 100 (0 no effect, 100 complete control)
[15] = Postemergence, 62 g ai/ha, 0 to 100 scale (0 no effect, 100 complete control)
[16] = Postemergence, 250 g ai/ha, scale 0 to 100, 0 is no effect, 100 is complete control
[17] = postemergence, 125 g ai/ha, scale 0 to 100, 0 no effect, 100 complete control

CC(=O)Oc1c(C)nn(C)c(=O)c1-c1c(C)sc2c(C)cc(C)cc12 [Compound 27]
Plant response rating, Ducksalad [1]: 30
Plant response rating, Sedge, Umbrella [2]: 80
Plant response rating, Barnyardgrass [3]: 30
Plant response rating, Rice (rice (Oryza sativa)): 40
Soybean plant response rating (soybean (Glycine max); [6]): 0
Plant response rating, Soybean (soybean (Glycine max); [7]): 0
Plant response rating, Soybean (soybean (Glycine max); [8]): 0
Plant response rating, Soybean (soybean (Glycine max); [9]): 0
Plant response rating, Soybean (soybean (Glycine max); [10]): 10
Soybean plant response rating (soybean (Glycine max); [11]): 0
Soybean plant response rating (soybean (Glycine max); [12]): 0
Wheat plant response rating [4, 6]: 0
Plant response rating, Wheat [4, 7]: 5
Plant response rating, Wheat [4, 8]: 5
Plant response rating, Wheat [4, 9]: 0
Plant response rating, Wheat [4, 10]: 0
Wheat plant response rating [4, 11]: 10
Wheat plant response rating [4, 12]: 0
Chickweed plant response rating [5, 6]: 95
Plant response rating, Chickweed [5, 7]: 100
Plant response rating, Chickweed [5, 8]: 100
Chickweed plant response rating [5, 12]: 100

CCOC(=O)Oc1c(C)nn(C)c(=O)c1-c1c(C)ccc2ccccc12 [Compound 73]
Plant response rating, Ducksalad [1]: 0
Plant response rating, Sedge, Umbrella [2]: 0
Plant response rating, Barnyardgrass [3]: 0
Plant response rating, Rice (rice (Oryza sativa)): 0
Soybean plant response rating (soybean (Glycine max); [6]): 0
Plant response rating, Soybean (soybean (Glycine max); [7]): 25
Plant response rating, Soybean (soybean (Glycine max); [8]): 45
Plant response rating, Soybean (soybean (Glycine max); [13]): 0
Plant response rating, Soybean (soybean (Glycine max); [9]): 0
Plant response rating, Soybean (soybean (Glycine max); [10]): 0
Soybean plant response rating (soybean (Glycine max); [11]): 0
Soybean plant response rating (soybean (Glycine max); [12]): 15
Wheat plant response rating [4, 6]: 10
Plant response rating, Wheat [4, 7]: 35
Plant response rating, Wheat [4, 8]: 40
Plant response rating, Wheat [4, 13]: 0
Plant response rating, Wheat [4, 9]: 20
Plant response rating, Wheat [4, 10]: 35
Wheat plant response rating [4, 11]: 60
Wheat plant response rating [4, 12]: 30
Chickweed plant response rating [5, 6]: 90
Plant response rating, Chickweed [5, 7]: 95
Plant response rating, Chickweed [5, 8]: 95
Chickweed plant response rating [5, 12]: 90

CC(=O)Oc1c(C)nn(C)c(=O)c1-c1c([N+](=O)[O-])ccc2ccccc12 [Compound 164]
Plant response rating, Ducksalad [1]: 0
Plant response rating, Sedge, Umbrella [2]: 0
Plant response rating, Barnyardgrass [3]: 0
Plant response rating, Rice (rice (Oryza sativa)): 0
Plant response rating, Soybean (soybean (Glycine max); [14]): 0
Soybean plant response rating (soybean (Glycine max); [15]): 0
Plant response rating, Soybean (soybean (Glycine max); [16]): 5
Soybean plant response rating (soybean (Glycine max); [17]): 10
Plant response rating, Wheat [4, 14]: 5
Wheat plant response rating [4, 15]: 5
Plant response rating, Wheat [4, 16]: 20
Wheat plant response rating [4, 17]: 10
Plant response rating, Chickweed [5, 14]: 80
Chickweed plant response rating [5, 15]: 90
Plant response rating, Chickweed [5, 16]: 98
Chickweed plant response rating [5, 17]: 95

Cc1nn(C)c(=O)c(-c2cc(F)cc3ccccc23)c1OS(C)(=O)=O [Compound 115]
Plant response rating, Ducksalad [1]: 0
Plant response rating, Sedge, Umbrella [2]: 0
Plant response rating, Barnyardgrass [3]: 0
Plant response rating, Rice (rice (Oryza sativa)): 0
Plant response rating, Soybean (soybean (Glycine max); [14]): 10
Plant response rating, Soybean (soybean (Glycine max); [7]): 20
Plant response rating, Soybean (soybean (Glycine max); [8]): 65
Plant response rating, Wheat [4, 14]: 0
Plant response rating, Wheat [4, 7]: 0
Plant response rating, Wheat [4, 8]: 5
Plant response rating, Chickweed [5, 14]: 80
Plant response rating, Chickweed [5, 7]: 90
Plant response rating, Chickweed [5, 8]: 90
Chickweed plant response rating [5, 12]: 75

COC(=O)Oc1c(C)nn(C)c(=O)c1-c1c([N+](=O)[O-])ccc2ccccc12 [Compound 162]
Plant response rating, Ducksalad [1]: 0
Plant response rating, Sedge, Umbrella [2]: 0
Plant response rating, Barnyardgrass [3]: 0
Plant response rating, Rice (rice (Oryza sativa)): 0
Plant response rating, Soybean (soybean (Glycine max); [14]): 0
Soybean plant response rating (soybean (Glycine max); [15]): 0
Plant response rating, Soybean (soybean (Glycine max); [8]): 0
Soybean plant response rating (soybean (Glycine max); [17]): 0
Plant response rating, Wheat [4, 14]: 0
Wheat plant response rating [4, 15]: 10
Plant response rating, Wheat [4, 8]: 10
Wheat plant response rating [4, 17]: 5
Plant response rating, Chickweed [5, 14]: 90
Chickweed plant response rating [5, 15]: 90
Plant response rating, Chickweed [5, 8]: 95
Chickweed plant response rating [5, 17]: 95

Cc1nn(C)c(=O)c(-c2cccc3ccc(C#N)cc23)c1O [Compound 127]
Plant response rating, Ducksalad [1]: 0
Plant response rating, Sedge, Umbrella [2]: 0
Plant response rating, Barnyardgrass [3]: 0
Plant response rating, Rice (rice (Oryza sativa)): 0
Plant response rating, Soybean (soybean (Glycine max); [14]): 0
Soybean plant response rating (soybean (Glycine max); [15]): 10
Plant response rating, Soybean (soybean (Glycine max); [8]): 35
Soybean plant response rating (soybean (Glycine max); [17]): 30
Plant response rating, Wheat [4, 14]: 0
Wheat plant response rating [4, 15]: 5
Plant response rating, Wheat [4, 8]: 30
Wheat plant response rating [4, 17]: 5
Plant response rating, Chickweed [5, 14]: 50
Chickweed plant response rating [5, 15]: 90
Plant response rating, Chickweed [5, 8]: 95
Chickweed plant response rating [5, 17]: 90

Cc1cc(C)c2sc(C)c(-c3c(OC(=O)OC(C)C)c(C)nn(C)c3=O)c2c1 [Compound 67]
Plant response rating, Ducksalad [1]: 0
Plant response rating, Sedge, Umbrella [2]: 0
Plant response rating, Barnyardgrass [3]: 0
Plant response rating, Rice (rice (Oryza sativa)): 0
Soybean plant response rating (soybean (Glycine max); [6]): 5
Plant response rating, Soybean (soybean (Glycine max); [7]): 5
Plant response rating, Soybean (soybean (Glycine max); [8]): 10
Plant response rating, Soybean (soybean (Glycine max); [13]): 0
Plant response rating, Soybean (soybean (Glycine max); [9]): 0
Plant response rating, Soybean (soybean (Glycine max); [10]): 0
Soybean plant response rating (soybean (Glycine max); [11]): 0
Soybean plant response rating (soybean (Glycine max); [12]): 5
Wheat plant response rating [4, 6]: 0
Plant response rating, Wheat [4, 7]: 0
Plant response rating, Wheat [4, 8]: 0
Plant response rating, Wheat [4, 13]: 0
Plant response rating, Wheat [4, 9]: 0
Plant response rating, Wheat [4, 10]: 0
Wheat plant response rating [4, 11]: 0
Wheat plant response rating [4, 12]: 0
Chickweed plant response rating [5, 6]: 90
Plant response rating, Chickweed [5, 7]: 95
Plant response rating, Chickweed [5, 8]: 95
Chickweed plant response rating [5, 12]: 95

Cc1cc(C)c2ccccc2c1-c1c(O)cnn(C)c1=O [Compound 51]
Plant response rating, Ducksalad [1]: 0
Plant response rating, Sedge, Umbrella [2]: 0
Plant response rating, Barnyardgrass [3]: 0
Plant response rating, Rice (rice (Oryza sativa)): 0
Soybean plant response rating (soybean (Glycine max); [6]): 0
Plant response rating, Soybean (soybean (Glycine max); [7]): 0
Plant response rating, Soybean (soybean (Glycine max); [8]): 0
Soybean plant response rating (soybean (Glycine max); [12]): 0
Wheat plant response rating [4, 6]: 0
Plant response rating, Wheat [4, 7]: 0
Plant response rating, Wheat [4, 8]: 0
Wheat plant response rating [4, 12]: 0
Chickweed plant response rating [5, 6]: 50
Plant response rating, Chickweed [5, 7]: 70
Plant response rating, Chickweed [5, 8]: 90
Chickweed plant response rating [5, 12]: 55
